Results on four molecules are retold here after patent US7517902B2, “Substituted indazoles, compositions containing the same, and the preparation and use thereof” (Aventis Pharma S.A., priority 2004, dated 2009).

Where a name gives a salt, the structure may show the parent alone.

Test [1] addresses T1, CDK4/cyclin D1 kinase complex (Homo sapiens, UniProt P11802).
T1 construct: HA (Hemagglutinin tag) (C); made in house; host or cells: Sf9 insect cells (baculovirus co-infection)
In words: CDK4/cyclinD1 Flashplate assay in 96-well format. Format: biochemical. The settings on record: read-out: IC 50 CDK4. On the procedure: Purification of the CDK4-HA/cyclin D1-(His)6 complex by IMAC (Immobilized Metal Affinity Chromatography):
Two recombinant baculoviruses carrying the human sequences coding respectively for CDK4-HA (C-terminal fusion with the Hemagglutinin tag) and for cyclin D1-(His)6 are used to co-infect Sf9 insect cells. Sixty hours after the beginning of co-infection, the cells are harvested by centrifugation and then frozen at −20° C. until their use. After thawing in buffer A (HEPES 200 mM pH 7.0, NaCl 50 mM, MgCl2 2 mM, imidazole 25 mM, TCEP 1 mM, glycerol 10% (w/v), NaF 1 mM, Na3VO4 1 mM), stirring at 4° C. for 1 h, and centrifugation, the complex present in the lysis supernatant is purified by affinity chromatography on nickel (IMAC) and stored at −80° C.
CDK4/cyclinD1 Flashplate Assay in 96-Well Format.
An assay in 96-well “Flashplate” (scintillation plate) plates coated with streptavidin is used to evaluate the inhibition of the CDK4/cyclin D1 kinase complex by the products of the invention. To perform this test, the biotinylated peptide substrate, a fragment of the pRb protein, (biotinyl-[…]-amide), is dissolved at a concentration of 2 mM in kinase buffer (HEPES/NaOH 50 mM, NaCl 1 mM, MgCl2 5 mM, pH=7.5) to form a stock solution, which is stored at −20° C. in the form of 110 μl aliquots. On the day of the experiment, an aliquot of this solution is thawed and diluted in kinase buffer containing 1 mM of dithiothreitol, added at the time of use, so as to give a final peptide concentration of 2.571 μM. seventy μl of this solution are deposited in each well of the Flashplate plate, to give a final substrate concentration of 1.8 μM during the enzymatic reaction, which is performed in a final volume of 100 μl (cf. below). Intermediate dilutions of inhibitors (products of the invention) at various concentrations are prepared in DMSO from 10 mM stock solutions in separate tubes. In this way dilutions at 1000 μM, 333.3 μM, 111.1 μM, 37.03 μM, 12.35 μM, 4.11 μM and 1.37 μM are produced. One μl of each of these solutions (or 1 μl of DMSO for the controls) is subsequently transferred into the wells of the assay plate. To each well there is subsequently added 19 μl of a solution of a mixture of adenosine triphosphate (ATP) and ATPγ^33P in the kinase buffer at a concentration of 5.26 μM of total ATP and 78.9 μCi/ml of ^33P. The enzymatic reaction is triggered by adding 10 μl per well of a solution of CDK4/cyclin D1 complex at 250 nM in the kinase buffer, containing 1 mM of dithiothreitol (or 10 μl of kinase buffer containing 1 mM of dithiothreitol for the reaction blanks). At the end of the various additions, the final volume in each well is 100 μl, the final substrate concentration is 1.8 μM, the final inhibitor concentrations are 10 μM, 3.33 μM, 1.11 μM, 0.37 μM, 0.123 μM, 0.041 μM and 0.014 μM (depending on the concentration of the intermediate dilution), the final ATP concentration is 1 μM, the final amount of ^33P is 1.5 μCi/well, and the final concentration of CDK4/cyclin D1 complex is 25 nM.
After all of the reagents have been added, the assay plate is incubated at 30° C. with orbital stirring at 650 rpm. Following incubation, the plate is washed three times with 300 μl per well of PBS buffer (phosphate buffered saline, pH=7.4 with neither calcium nor magnesium, reference 10010-015, Gibco BRL). The incorporation of ^33P into the substrate peptide is measured by scintillation counting using a Packard Topcount.NXT instrument. The inhibitory activity of the products of the invention is evaluated by determining the concentration of inhibitor resulting in a 50% reduction in the enzymatic activity (IC50).

Test [2] addresses T2, human KDR enzyme (Homo sapiens, UniProt P35968).
T2 construct: The cytoplasmic domain of the human KDR enzyme was cloned in the form of a GST fusion; GST; made in house; host or cells: SF21 insect cells (baculovirus, pFastBac)
In words: KDR substrate phosphorylation assay (scintillation, 96-well plate). Format: biochemical. The method in brief: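 GST-fused cytoplasmic domain of human KDR (Sf21-expressed, ~60% pure; 100 ng) mixed with compound at 4 °C in MOPS buffer pH 7.2 with Mg2+/Mn2+, DTT, EGTA, vanadate, NaF. Started with 2 μg GST-PLCγ SH2-SH3, γ33P-ATP and cold ATP (2 μM in starting solution); 1 h, 37 °C, EDTA stop. Result: % inhibition vs no-compound control.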

T2 sequence (P35968 786-1356 limits assumed): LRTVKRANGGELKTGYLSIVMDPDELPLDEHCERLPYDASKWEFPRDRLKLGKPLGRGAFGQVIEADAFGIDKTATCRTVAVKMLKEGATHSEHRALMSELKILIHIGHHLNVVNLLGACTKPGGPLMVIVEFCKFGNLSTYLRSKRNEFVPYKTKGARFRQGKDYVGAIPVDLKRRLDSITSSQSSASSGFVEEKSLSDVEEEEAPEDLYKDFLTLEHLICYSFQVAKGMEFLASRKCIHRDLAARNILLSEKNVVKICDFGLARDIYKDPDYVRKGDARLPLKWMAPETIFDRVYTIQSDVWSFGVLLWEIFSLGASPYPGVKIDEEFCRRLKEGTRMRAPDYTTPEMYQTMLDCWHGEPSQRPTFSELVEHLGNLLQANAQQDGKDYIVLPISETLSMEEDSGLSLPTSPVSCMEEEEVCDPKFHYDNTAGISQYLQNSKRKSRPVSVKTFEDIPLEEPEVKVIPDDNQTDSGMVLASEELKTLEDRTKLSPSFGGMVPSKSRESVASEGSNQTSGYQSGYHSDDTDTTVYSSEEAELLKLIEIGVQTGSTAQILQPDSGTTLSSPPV
T1 sequence (P11802 whole entry): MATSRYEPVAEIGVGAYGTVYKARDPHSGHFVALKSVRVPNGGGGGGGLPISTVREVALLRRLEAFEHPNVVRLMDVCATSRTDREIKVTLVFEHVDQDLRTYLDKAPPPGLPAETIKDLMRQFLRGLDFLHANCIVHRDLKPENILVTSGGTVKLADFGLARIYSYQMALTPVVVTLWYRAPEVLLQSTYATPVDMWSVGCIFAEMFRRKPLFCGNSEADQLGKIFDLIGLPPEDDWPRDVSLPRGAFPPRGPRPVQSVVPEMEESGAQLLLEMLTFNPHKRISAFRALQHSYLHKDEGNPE
T1 sequence (P24385 whole entry partner): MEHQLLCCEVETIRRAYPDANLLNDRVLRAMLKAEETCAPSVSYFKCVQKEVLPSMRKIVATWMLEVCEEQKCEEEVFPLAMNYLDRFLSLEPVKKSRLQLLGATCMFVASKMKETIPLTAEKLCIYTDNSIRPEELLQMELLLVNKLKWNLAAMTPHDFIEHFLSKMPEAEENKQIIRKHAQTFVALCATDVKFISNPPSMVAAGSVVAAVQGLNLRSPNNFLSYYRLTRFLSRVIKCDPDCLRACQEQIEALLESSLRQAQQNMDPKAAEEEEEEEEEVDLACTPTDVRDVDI

As to `Nc1n[nH]c2cc(-c3ccc(NS(=O)(=O)c4cccc(Cl)c4Cl)cc3)ccc12` [Example 2, 1-[4-(3-Amino-1H-indazol-6-yl)phenyl]-2,3-dichlorobenzenesulfonamide hydrochloride], in test [1], the IC50 was determined as 132 nM.
Consider `O=C(Nc1n[nH]c2cc(-c3ccc(NS(=O)(=O)c4cccc(Cl)c4Cl)cc3)ccc12)c1ccsc1` [Example 3, 3-Thiophenecarboxylic acid {6-[4-(2,3dichlorobenzenesulfonylamino)phenyl]-1H-indazol-3-yl}amide], for which the IC50 in test [1] came out at 145 nM; in test [2], 864 nM.
In the case of `O=C(Nc1n[nH]c2c(F)c(-c3ccc(NS(=O)(=O)c4cccc(Cl)c4Cl)cc3)ccc12)c1ccsc1` [Example 5, 3-Thiophenecarboxylic acid {6-[4-(2,3-dichlorobenzenesulfonylamino)-7-fluorophenyl]-1H-indazol-3-yl}amide], the IC50 in test [1] was determined as 55 nM; in test [2], 1870 nM.
On the same counts, the results for `Nc1n[nH]c2c(F)c(-c3ccc(NS(=O)(=O)c4cccc(Cl)c4Cl)cc3)ccc12` [Example 8, 1-[4-(3-Amino-1H-indazol-6-yl)-7-fluorophenyl]-2,3-dichlorobenzenesulfonamide hydrochloride] are 117 nM and 6590 nM.
